In paper PMC9926489, “Chemical Optimization of Selective Pseudomonas aeruginosa LasB Elastase Inhibitors and Their Impact on LasB-Mediated Activation of IL-1β in Cellular and Animal Infection Models” (ACS Infectious Diseases, 2023):

Tests used:
[1] = target: T1, LasB (P. aeruginosa PAO1 culture supernatant) (Pseudomonas aeruginosa, UniProt P14756); assay: Elastin Congo Red (ECR) assay, elastin hydrolysis by dialyzed PAO1 culture supernatant; assay type: biochemical; details: 25 μM inhibitor
T1 construct: The mature LasB protein is a 33 kDa metalloprotease, which is secreted from P. aeruginosa; endogenous in cells; host or cells: P. aeruginosa PAO1 culture supernatant, filtered and dialyzed
T1 sequence (P14756 198-498): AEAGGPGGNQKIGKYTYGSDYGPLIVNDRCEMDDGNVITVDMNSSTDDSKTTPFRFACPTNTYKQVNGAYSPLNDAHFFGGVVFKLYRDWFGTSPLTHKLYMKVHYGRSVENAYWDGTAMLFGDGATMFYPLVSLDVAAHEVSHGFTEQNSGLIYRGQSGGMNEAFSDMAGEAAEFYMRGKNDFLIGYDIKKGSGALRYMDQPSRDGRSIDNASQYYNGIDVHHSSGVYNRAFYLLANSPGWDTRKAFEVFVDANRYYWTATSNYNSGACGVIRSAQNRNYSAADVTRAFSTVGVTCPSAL
Source text: This was chosen as the starting point for a medicinal chemistry-driven lead optimization program aiming to improve potency and solubility whilst retaining selectivity against host metalloenzymes. All synthesized compounds were initially assessed in a fluorimetric assay measuring hydrolysis of a fluorogenic substrate Abz-Ala-Gly-Leu-Ala-4-nitrobenzylamide (Abz-AGLA-Nba) by purified LasB and IC50 values determined (Tables 1 and 2). Inhibition of elastin hydrolytic activity was confirmed using an orthogonal assay measuring hydrolysis of Elastin Congo Red (ECR) complex by LasB prepared directly from a P. aeruginosa culture supernatant (Tables 1 and 2). […] Aqueous solubility was determined for most compounds (Tables 1 and 2).
Inhibition of elastin hydrolysis by native LasB, secreted in P. aeruginosa culture supernatants, was measured using the Elastin Congo Red (ECR) assay. Culture supernatants from P. aeruginosa strain PAO1, grown in LB medium at 37 °C for 24 h, were filtered and dialyzed against 50 mM Tris-HCl pH 7.4, 2.5 mM CaCl2 solution at 4 °C and supplemented with 0.01%Triton X-100, 10 mg/mL ECR (Sigma) and 25 μM inhibitor compounds. The reaction mixture was incubated for 16 h at 37 °C with shaking before centrifugation and recovery of the supernatant and measurement of solubilized congo red by absorbance (OD495) using an EnSight multimode plate reader (PerkinElmer).

[2] = target: T2, human neutrophil elastase (HNE) (Homo sapiens, UniProt P08246); assay: HNE selectivity assay; assay type: biochemical
T2 construct: purchased Enzo Life Sciences
T2 sequence (P08246 30-267): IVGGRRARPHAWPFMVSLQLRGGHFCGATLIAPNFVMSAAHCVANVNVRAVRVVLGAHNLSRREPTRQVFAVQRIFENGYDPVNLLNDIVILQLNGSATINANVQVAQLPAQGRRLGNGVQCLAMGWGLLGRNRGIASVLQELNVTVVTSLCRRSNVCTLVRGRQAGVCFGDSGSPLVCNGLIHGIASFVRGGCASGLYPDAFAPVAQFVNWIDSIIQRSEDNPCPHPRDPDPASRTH
Procedure: Selectivity of compound inhibition was evaluated against other proteases at concentrations between 0.4 and 200 μM. Activity against rabbit angiotensin-converting enzyme (ACE, Sigma) was assessed using 10 μM fluorogenic substrate Abz-Phe-Arg-Lys(Dnp)-P (Enzo Life Sciences) in 100 mM Tris-HCl pH 7, 50 mM NaCl, 10 μM Zn SO4. Activity against human matrix metalloproteases (MMP)-2 and MMP-9 was assessed in 50 mM HEPES pH 7.5, 10 mM CaCl2, 0.01% Triton X-100 using 4 μM fluorogenic substrate Mca-Pro-Leu-Gly-Leu-Dpa-Ala-Arg-NH2 (Enzo Life Sciences). Activity against MMP-1 and MMP-13 was assessed in 25 mM HEPES pH 7.5, 100 mM NaCl, 100 mM CaCl2, 0.0005% Brij using 7.5 μM fluorogenic substrate Mca-Lys-Pro-Leu-Gly-Leu-Dpa-Ala-Arg-NH2 (Sigma) for MMP-1 and 1.25 μM fluorogenic substrate Mca-Pro-Cha-Gly-Nva-His-Ala-Dpa-NH2 (Millipore) for MMP-13. Activity against human neutrophil elastase (HNE, Enzo Life Sciences) was assessed in 100 mM HEPES pH 7.5, 500 mM NaCl, 0.01% of Triton X-100 using 100 μM fluorogenic substrate MeOSuc-AAPV-AMC (Enzo Life Sciences).

LasB WT (PAO1 reference) = target: T3, LasB WT (PAO1 reference) (Pseudomonas aeruginosa, UniProt P14756); assay: LasB variant inhibition, Abz-AGLA-Nba assay with culture supernatant: WT; assay type: biochemical, P. aeruginosa
T3 construct: endogenous in cells; host or cells: P. aeruginosa strains of WT lasB genotype, culture supernatant
T3 sequence (P14756 198-498): as the sequence (P14756 198-498) above
Source text: (§1) Compounds 12 and 16 were discovered as a result of optimizing potency against the LasB protein expressed from the wild-type (WT) reference strain P. aeruginosa PAO1. To understand the relative prevalence of the WT LasB protein versus other variants in clinical respiratory P. aeruginosa strains, the full-length lasB gene was amplified by PCR from 255 clinical isolates (obtained from CF sputum samples). […] Most changes were identified in the mature peptide, however some occurred in the propeptide domain, which could affect LasB processing (marked in italics in Table 4).
(§2) LasB inhibition assays were performed using purified LasB enzyme (1 ng/well) for compound screening or using culture supernatants (prepared as described in the ECR assay) for testing LasB variants. Hydrolysis of the fluorogenic peptide substrate 2-aminobenzoyl-Ala-Gly-Leu-Ala-4-nitrobenzylamide (Abz-AGLA-Nba; Peptide International) in 50 mM Tris-HCl (pH 7.4), supplemented with 2.5 mM CaCl2 was followed using an Envision microplate reader (PerkinElmer) at 315 nm excitation and 430 nm emission. […] IC50 values were determined from Hill plots using Dotmatics Studies ELN software. For the mechanism of inhibition studies, hydrolysis rates were measured in the presence of variable concentrations of substrate and inhibitor, and the inhibition constant (Ki) was determined using Dixon plot analysis.[31]

LasB T65I = target: T4, LasB T65I (Pseudomonas aeruginosa, UniProt P14756); assay: LasB variant inhibition, culture supernatant: T65I; assay type: biochemical, P. aeruginosa
T4 construct: endogenous in cells; host or cells: P. aeruginosa clinical CF isolate, culture supernatant
T4 sequence (P14756 198-498, stated change not applied): as the sequence (P14756 198-498) above
Source text: as §1, §2

LasB Q71L = target: T5, LasB Q71L (Pseudomonas aeruginosa, UniProt P14756); assay: LasB variant inhibition, culture supernatant: Q71L; assay type: biochemical, P. aeruginosa
T5 construct: endogenous in cells; host or cells: P. aeruginosa clinical CF isolate, culture supernatant
T5 sequence (P14756 198-498, stated change not applied): as the sequence (P14756 198-498) above
Source text: as §1, §2

Compound | Elastin hydrolysis @ 25 μM (% inh) [1] [% inh] | IC50 [2] [nM] | IC50 (LasB WT (PAO1 reference)) [nM] | IC50 (LasB T65I) [nM] | IC50 (LasB Q71L) [nM]
COc1cc2sc(CNC(=O)C3(CC(=O)O)Cc4ccccc4C3)nc2cc1OCCC[N+](C)(C)C [Compound 12] | 64 | > 200000 | 222 | 216 | 214
COc1cc2sc(CNC(=O)C3(CC(=O)O)Cc4cc(F)c(F)cc4C3)nc2cc1OCCC[N+](C)(CCO)CCO [Compound 16] | 73 | > 200000 | 177 | 182 | 177
